Experimental data: patent publication US7939535B2, “Benzo[D]isoxazol-3-yl-piperazin derivatives useful as modulators of dopamine D3 receptors” (Hoffman-La Roche Inc., priority 2008, dated 2011)

target: T1, human D3 dopamine receptor (Homo sapiens, UniProt P35462); assay: radioligand binding ([3H]-spiperone) to human D3 receptor membranes; settings: [3H]-spiperone displacement, membranes of HEK-293 EBNA cells transiently expressing human D3
T1 construct: expressed in transfected cells; host or cells: HEK-293 EBNA cells, transient transfection; membrane homogenate
Experimental: The ability of the compounds to bind to the D3 receptors was determined using radioligand binding to cloned receptors selectively expressed in HEK-293 EBNA cells.
HEK-293 EBNA cells were transiently transfected with expression plasmids encoding for the human D3 dopamine receptor. The cells were harvested 48 h post-transfection, washed three times with cold PBS and stored at −80° C. prior to use. The pellet was suspended in cold 50 mM Tris-HCl buffer containing 10 mM EDTA (pH 7.4) and homogenized with a Polytron (Kinematica AG, Basel, Switzerland) for 20-30 sec at 12.000 rpm. After centrifugation at 48.000×g for 30 mM at 4° C., the pellet was resuspended in cold 10 mM Tris-HCl buffer containing 0.1 mM EDTA (pH 7.4), homogenized, and centrifuged as above. This pellet was further resuspended in a smaller volume of ice cold 10 mM Tris-HCl buffer containing 0.1 mM EDTA (pH 7.4) and homogenized with a Polytron for 20-30 sec at 12.000 rpm. The protein content of this homogenate was determined with the Bio-Rad (radford) Protein Assay (Biorad Laboratories GmbH, München, Germany) according to the instructions of the manufacturer using gamma globulin as the standard. This homogenate was stored at −80° C. in aliquots and thawed immediately prior to use.
Aliquots of membrane preparations were thawed at RT, resuspended in assay buffer (50 mM Tris-HCl, 120 mM NaCl, 5 mM MgCl2, 1 mM E TA, 5 mM KCl, 1.5 mM CaCl2, pH=7.4), homogenized with a Polytron for 20-30 sec at 12.000 rpm and adjusted to a final concentration of approximately 7.5 μg protein/well.
The binding affinity (Ki) of the compounds was determined using radioligand binding. Membranes were incubated in a total volume of 200 with a fixed concentration of radioligand (final concentration approximately 0.5 nM [^3H]-spiperone) and ten concentrations of test compound in ranging between 10 μM-0.1 nM for 1 at RT. At the end of the incubation, the reaction mixtures were filtered on to unifilter 96-well white microplates with bonded GF/C filters (Packard BioScience, Zürich, Switzerland; preincubated for 1 h in 0.1% polyethylenimine (PEI) in assay buffer) with a Filtermate 196 harvester (Pack rd BioScience) and washed 3 times with cold assay buffer. The nonspecific binding was determined with equally composed reaction mixtures in the presence of 10 μM unlabelled spiperone. Per well 45 μl of Microscint 40 (Perkin Elmer, Schwerzenbach, Switzerland) was added, plate, for sealed, shaken for 20 mM and counted for 3 mM on a Topcount Microplate Scintillation Counter (Canberra Packard SA, Zürich, Switzerland) with quenching correction.
The CPM value for each duplicate of a concentration of competing compound was averaged (y1), then the % specific binding was calculated according to the equation (((y1−non-specific)/(total binding-non-specific))×100). Graphs were plotted with the % specific binding using XLfit, a curve fitting program that iteratively plots the data using Levenburg Marquardt algorithm. The single site competition analysis equation used was y=A+((B−A)/(1+((x/C)^D))), where y is the % specific binding, A is the minimum y, B is the maximum y, C is the IC50, x is the log10 of the concentration of the competing compound and D is the slope of the curve (the Hill Coefficient). From these curves the IC50 (inhibition concentration at which 50% specific binding of the radioligand was displaced) and Hill coefficient were determined. The affinity constant (Ki) was calculated using the Cheng-Prusoff equation Ki=(IC50/1+([L]/Kd), where [L] is the concentration of radioligand and Kd is the dissociation constant of the radioligand at the receptor as determined by the saturation isotherm.

T1 sequence (P35462 whole entry): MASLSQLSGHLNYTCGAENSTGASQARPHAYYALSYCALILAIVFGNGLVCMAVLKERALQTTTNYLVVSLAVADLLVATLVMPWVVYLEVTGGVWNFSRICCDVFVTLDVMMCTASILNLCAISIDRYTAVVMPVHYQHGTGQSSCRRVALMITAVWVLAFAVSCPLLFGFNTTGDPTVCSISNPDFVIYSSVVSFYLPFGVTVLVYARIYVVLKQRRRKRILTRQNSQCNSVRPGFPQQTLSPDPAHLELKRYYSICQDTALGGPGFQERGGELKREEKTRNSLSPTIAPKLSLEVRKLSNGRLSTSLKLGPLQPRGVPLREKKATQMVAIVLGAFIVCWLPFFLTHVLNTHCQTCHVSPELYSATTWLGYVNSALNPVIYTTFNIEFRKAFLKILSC

Row | SMILES | Ki [nM]
1 | CC(=O)N[C@H]1CC[C@H](CCN2CCN(c3noc4c(F)cc(F)cc34)CC2)CC1 [Example 1, N-(trans-4-{2-[4-(5,7-Difluoro-benzo[d]isoxazol-3-yl)-piperazin-1-yl]-ethyl}-cyclohexyl)-acetamide] | 3.7
2 | O=C(CO)N[C@H]1CC[C@H](CCN2CCN(c3noc4c(F)cc(F)cc34)CC2)CC1 [Example 2, N-(trans-4-{2-[4-(5,7-Difluoro-benzo[d]isoxazol-3-yl)-piperazin-1-yl]-ethyl}-cyclohexyl)-2-hydroxy-acetamide] | 3.88
3 | COCC(=O)N[C@H]1CC[C@H](CCN2CCN(c3noc4c(F)cc(F)cc34)CC2)CC1 [Example 3, N-(trans-4-{2-[4-(5,7-Difluoro-benzo[d]isoxazol-3-yl)-piperazin-1-yl]-ethyl}-cyclohexyl)-2-methoxy-acetamide] | 15.6
4 | COCCC(=O)N[C@H]1CC[C@H](CCN2CCN(c3noc4c(F)cc(F)cc34)CC2)CC1 [Example 4, N-(trans-4-{2-[4-(5,7-Difluoro-benzo[d]isoxazol-3-yl)-piperazin-1-yl]-ethyl}-cyclohexyl)-3-methoxy-propionamide] | 3.66
5 | CO[C@H]1CC[C@H](CC(=O)N[C@H]2CC[C@H](CCN3CCN(c4noc5c(F)cc(F)cc45)CC3)CC2)CC1 [Example 5, N-(trans-4-{2-[4-(5,7-Difluoro-benzo[d]isoxazol-3-yl)-piperazin-1-yl]-ethyl}-cyclohexyl)-2-(trans-4-methoxy-cyclohexyl)-acetamide] | 11.8
6 | CCC(=O)N[C@H]1CC[C@H](CCN2CCN(c3noc4c(F)cc(F)cc34)CC2)CC1 [Example 6, N-(trans-4-{2-[4-(5,7-Difluoro-benzo[d]isoxazol-3-yl)-piperazin-1-yl]-ethyl}-cyclohexyl)-propionamide] | 4.53
7 | O=C(CC1CC1)N[C@H]1CC[C@H](CCN2CCN(c3noc4c(F)cc(F)cc34)CC2)CC1 [Example 7, 2-Cyclopropyl-N-(trans-4-{2-[4-(5,7-difluoro-benzo[d]isoxazol-3-yl)-piperazin-1-yl]-ethyl}-cyclohexyl)-acetamide] | 2.72
8 | O=C(N[C@H]1CC[C@H](CCN2CCN(c3noc4c(F)cc(F)cc34)CC2)CC1)C1CCOCC1 [Example 8, Tetrahydro-pyran-4-carboxylic acid (trans-4-{2-[4-(5,7-difluoro-benzo[d]isoxazol-3-yl)-piperazin-1-yl]-ethyl}-cyclohexyl)-amide] | 9.81
9 | NC(=O)CC(=O)N[C@H]1CC[C@H](CCN2CCN(c3noc4c(F)cc(F)cc34)CC2)CC1 [Example 9, N-(trans-4-{2-[4-(5,7-Difluoro-benzo[d]isoxazol-3-yl)-piperazin-1-yl]-ethyl}-cyclohexyl)-malonamide] | 5.94
10 | CC(=O)N[C@H]1CC[C@H](CCN2CCN(c3noc4ccc(F)c(F)c34)CC2)CC1 [Example 10, N-(trans-4-{2-[4-(4,5-Difluoro-benzo[d]isoxazol-3-yl)-piperazin-1-yl]-ethyl}-cyclohexyl)-acetamide] | 8.57
11 | COCCC(=O)N[C@H]1CC[C@H](CCN2CCN(c3noc4ccc(F)c(F)c34)CC2)CC1 [Example 11, N-(trans-4-{2-[4-(4,5-Difluoro-benzo[d]isoxazol-3-yl)-piperazin-1-yl]-ethyl}-cyclohexyl)-3-methoxy-propionamide] | 9.71
